Numbered stars: 1 amine (or outer) side, 2 acyl side, 3 side chain; on linkers, the order of the positions; unused ones are H or OH. Bridge positions count the residues as written; N and C are the ends. Square brackets hold non-standard residues; d marks the D form. Peptide text beside a SMILES is read from it. I, II: the chains in the order shown. * marks the point of attachment. Dolaproine = CO[C@@H]([C@@H]1CCCN1)[C@@H](C)C(=O)O; Dil = CC[C@H](C)[C@H](NC)[C@@H](CC(=O)O)OC; X2 = O=C1CC([*:2])C(=O)N1CCCCCC(=O)[*:1]; γGlu = O=C(O)[C@H](CCC(=O)[*:2])N[*:1]; PABC = O=C(OCc1ccc(N[*:1])cc1)[*:2]; X1 = C[C@@H](N*)[C@@H](O)c1ccccc1; Trx = NC[C@H]1CC[C@H](C(=O)O)CC1; Cit = NC(=O)NCCC[C@H](N)C(=O)O; NMeV = CN[C@H](C(=O)O)C(C)C; CO = O=C([*:1])[*:2]; Ahx = NCCCCCC(=O)O

Series [1] relates to orthotopic PC3pip tumors. Nature of the series: Orthotopic survival study. Particulars: 3860 nmol/kg, five mice per group. Type of series: in vivo, mice. As to the method:
Surgical orthotopic tumor implantation was performed as previously reported. Tumor growth/size was monitored using Siemens Acuson S2000 ultrasound scanner. When the tumors were at the appropriate size (5 mm as measured by ultrasound, approximately 2 weeks) animals were given PSMA-1-VcMMAE, PSMA-1-VcMMAE-Cy5.5, or PBS every four days with a total of 5 doses. Tumors were monitored every other day by ultrasound. Each group had five mice.

In series [2] the test system is PSMA-negative PC3flu cells. Nature of the series: In vitro cytotoxicity assay (CCK-8), PC3flu. Type of series: cell-based, human. As to the method: (§1) Cells (1,000/well) were seeded in 96-well culture plates the day before treatment. Cells were incubated with various concentrations of drugs for 72 hours and cell viability evaluated by CCK-8 (Dojindo). The concentration required to reach 50% of cell proliferation was determined (IC50) by GraphPad Prism 3.0.

Series [3] can be described thus: In vitro cytotoxicity assay (CCK-8), PC3flu. Type of series: cell-based, human. Conditions: 72 hours incubation, CCK-8; read-out: IC50 cytotoxicity, PC3flu cells. As to the method:
as §1

In series [4] the test system is heterotopic PC3pip tumors. Nature of the series: Heterotopic survival study. It is filed as in vivo, mice. The text has this:
Male athymic nude mice were implanted subcutaneously with 1×10^6 of PC3pip cells under the right dorsum of the mice. When tumor size reached approximately 100 mm^3 (tumor volume=Length×width^2/2), mice received drugs through tail vein injection. […] Animals were weighed and tumor size measured every other day for 90 days. Cures were defined as no tumor present at end of the 90-day study. When tumors became too large or animals were moribund they were euthanized. Five mice were used in each group.

For series [5], the system named is PSMA-positive PC3pip cells. Nature of the series: In vitro cytotoxicity assay (CCK-8), PC3pip. It is filed as cell-based, human. On the procedure:
as §1

The nature of series [6]: In vitro cytotoxicity assay (CCK-8), PC3pip. Type of series: cell-based, human. Particulars: 72 hours incubation. As to the method: as §1
Series [7] in a line: Maximum tolerated dose (MTD). Type of series: in vivo, mice. The text has this:
Mice were monitored daily for 14 days.

The test system of series [8] is metastatic PC3pip model (GFP labeled PC3pip cells). Nature of the series: Metastatic survival study. Type of series: in vivo, mice. On the procedure:
Male athymic nude mice were injected into the left ventricle of the heart with 1×10^5 GFP labeled PC3pip cells to generate bone metastasis. One week later mice received 160 nmol/kg PSMA-1-VcMMAE-Cy5.5 or PBS every 4 days with a total of 5 doses and the progression of disease was monitored by GFP imaging. Five mice were used in each group.

Series [9] deals with T1, PSMA (Homo sapiens, UniProt Q04609).
T1 construct: expressed in transfected cells; host or cells: PC3pip cells (PC3 retrovirally transduced with PSMA), from Dr. Michel Sadelain, MSKCC
Nature of the series: Competitive binding assay (3H-ZJ24 displacement), Example 1. Particulars: PC3pip cells, 10 nM 3H-ZJ24; read-out: IC50, concentration required to inhibit 50% of binding.
Procedure: The assay was carried as previously reported by incubation PC3pip cells with different concentrations of drug conjugates in the presence of 10 nM N—[N—[(S)-1,3-dicarboxypropyl]carbamoyl]-S-[^3H]-methyl-L-cysteine (^3H-ZJ24) (GE Healthcare Life Sciences, Pittsburgh, PA). Radioactivity of cell pellet was counted by scintillation counter.

The target of series [10] is T1, PSMA. Nature of the series: Competition binding studies, Example 2. Particulars: PC3pip cells, 12 nM 3H-ZJ24, 1 h, 37° C.; read-out: IC50, concentration required to inhibit 50% of the binding. On the procedure: PC3pip cells ([…]) was suspended in 200 μL of 50 mM Tris buffer, pH 7.5. The cells were incubated at 37° C. with different concentrations of PSMA-1-MMAE-IR700 or ZJ24 in the presence of 12 nM of 3H-ZJ24 for 1 h. The cells were then washed 3 times with cold PBS and cell-associated radioactivity was measured by scintillation counting. The concentration required to inhibit 50% of the binding (IC50) was determined by GraphPad Prism 3.0. Studies were performed in triplicate.

In series [11] the test system is α-tubulin in PC3pip and PC3flu cells. Nature of the series: Immunofluorescence analysis of alpha-tubulin. Type of series: cell-based, human. Conditions: 5 nM, 24 hours. As to the method: Cells on coverslips at about 70% confluency were incubated with 5 nM of MMAE, PSMA-1-VcMMAE-Cy5.5 or PSMA-1-McMMAE-Cy5.5 for 24 hours. Cells were washed and fixed with 4% paraformaldehyde for 10 minutes, permeabilized with 0.1% Triton™ X-100 for 10 minutes, and blocked with 1% BSA for 1 hour at room temperature. Alpha-tubulin (B5-1-2) Alexa Fluor 488 Mouse Monoclonal Antibody (Invitrogen) was then added at 2 μg/mL in 0.1% BSA and incubated for 3 hours at room temperature. Cells were counterstained with DAPI, mounted with Fluor-Mount aqueous mounting solution, and observed under Leica DM4000B fluorescence microscopy at 40×.

Series [12] can be described thus: Stability of conjugates incubated with PBS, Example 1. Particulars: without enzyme. Type of series: physicochemical. On the procedure: To investigate if PSMA-targeted drug conjugates were cleavable by cathepsin B, the two conjugates were incubated with or without the enzyme and chromatographed by HPLC. When the conjugates were incubated with PBS, both PSMA-1-VcMMAE-Cy5.5 and PSMA-1-McMMAE-Cy5.5 were stable (FIG. 1D).

Series [13] deals with PC3pip and PC3flu tumors. Nature of the series: In vivo NIR imaging studies, Example 1. Details: species or system mice. Conditions: 40 nmol/kg i.v., fluorescence imaging. On the procedure: Under guidelines of the animal care and use committee at Case Western Reserve University (IACUC #150033) 6 to 8-week old male Balb/cathymic nude mice were implanted subcutaneously with 1×10^6 of PC3flu and PC3pip on the left and right dorsum respectively. Mice received 40 nmol/kg of PSMA-1-VcMMAE-Cy5.5 or PSMA-1-McMMAE-Cy5.5 in PBS via tail vein injection when tumors reached 10 mm in diameter. Fluorescence imaging was performed using the Maestro In Vivo Imaging system (Perkin-Elmer). Multispectral images were unmixed into their component spectra (PSMA probes, autofluorescence, and background) to quantitate the average fluorescence intensity associated with the tumors using regions of interest (ROIs) around the tumors.

Series [14] concerns the target T2, human liver cathepsin B (Homo sapiens, UniProt P07858).
T2 construct: purchased Anthens Research and Technology; host or cells: human liver (tissue-derived enzyme)
Nature of the series: Enzymatic cleavage by cathepsin B, Example 1. It is filed as in vitro ADME. Particulars: 2 μM conjugate, 37° C., HPLC. On the procedure: PSMA-1-VcMMAE-Cy5.5 or PSMA-1-McMMAE-Cy5.5 was added to 500 μL of activated human liver cathepsin B (Anthens Research and Technology) solution to a final concentration of 2 μM and incubated at 37° C. At different time intervals, 40 µL of the solution was taken out into tubes loaded with 1 μL of 1 mM E64 protease inhibitor. The mixture was vortexed and then stored at −80° C. for future HPLC analysis to assess degradation of PSMA-1-VcMMAE-Cy5.5 or PSMA-1-McMMAE-Cy5.5. Studies were performed in triplicate.

The test system of series [15] is PSMA receptor expressed on the PC3pip cells. Nature of the series: In vitro cellular uptake studies, Example 1. Type of series: cell-based, human. Conditions: 50 nM, 4 hours. As to the method:
PC3pip and PC3flu cells were seeded in p-Slide 8-Well Chamber Slide (ibidi GmbH) at 2,000 cells/well. When cells grew to 70% confluency, PSMA-1-VcMMAE-Cy5.5 or PSMA-1-McMMAE-Cy5.5 conjugations were added at 50 nM and incubated at 37° C. for 4 hours. Cells were washed with PBS and stained with DAPI and LysoOrange (Abcam) for 30 minutes at 37° and 5% CO2, after which they were washed again with PBS and filled with fresh medium. Selectivity was determined by including 20-fold excess of the PSMA-1 ligand. The uptake and localization of the drug conjugates were visualized under a Leica HyVolution SP8 confocal microscope at 40×.

T1 sequence (Q04609 whole entry): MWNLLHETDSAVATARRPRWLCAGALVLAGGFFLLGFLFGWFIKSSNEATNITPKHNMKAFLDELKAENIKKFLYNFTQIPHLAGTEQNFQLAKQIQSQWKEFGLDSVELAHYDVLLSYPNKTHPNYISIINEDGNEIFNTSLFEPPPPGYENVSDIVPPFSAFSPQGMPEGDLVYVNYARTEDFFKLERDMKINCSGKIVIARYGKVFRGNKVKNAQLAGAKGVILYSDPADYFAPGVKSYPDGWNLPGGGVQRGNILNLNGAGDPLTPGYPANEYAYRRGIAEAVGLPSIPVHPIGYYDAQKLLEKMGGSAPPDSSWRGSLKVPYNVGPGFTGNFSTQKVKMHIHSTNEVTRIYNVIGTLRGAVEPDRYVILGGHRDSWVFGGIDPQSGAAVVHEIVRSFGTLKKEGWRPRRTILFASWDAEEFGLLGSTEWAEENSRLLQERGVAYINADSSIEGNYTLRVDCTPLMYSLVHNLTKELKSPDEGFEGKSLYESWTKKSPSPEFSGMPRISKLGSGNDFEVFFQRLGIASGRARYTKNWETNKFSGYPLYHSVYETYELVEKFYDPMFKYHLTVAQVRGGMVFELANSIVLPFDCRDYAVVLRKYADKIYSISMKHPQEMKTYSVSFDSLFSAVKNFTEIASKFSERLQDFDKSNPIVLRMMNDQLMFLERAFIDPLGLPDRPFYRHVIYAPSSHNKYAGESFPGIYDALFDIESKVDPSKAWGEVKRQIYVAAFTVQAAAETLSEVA

In series [1], `CC[C@H](C)[C@@H]([C@@H](CC(=O)N1CCC[C@H]1[C@H](OC)[C@@H](C)C(=O)N[C@H](C)[C@@H](O)c1ccccc1)OC)N(C)C(=O)[C@@H](NC(=O)[C@H](C(C)C)N(C)C(=O)OCc1ccc(NC(=O)[C@H](CCCNC(N)=O)NC(=O)[C@@H](NC(=O)CCCCCN2C(=O)CC(SC[C@H](NC(=O)[C@H](CCC(=O)O)NC(=O)[C@H](CCC(=O)O)NC(=O)[C@H](CCC(=O)O)NC(=O)CCCCCNC(=O)[C@H]3CC[C@H](CNC(=O)CC[C@H](NC(=O)N[C@@H](CCC(=O)O)C(=O)O)C(=O)O)CC3)C(=O)NCCCCCC(=O)N[C@@H](CCCCN)C(N)=O)C2=O)C(C)C)cc1)C(C)C` (stereo partly drawn) [PSMA-1-VcMMAE] (I: V[Cit][PABC][NMeV]V[Dil][Dolaproine]-X1 / II: {Glu-CO-γGlu-Trx-Ahx}-EEEC[Ahx]K-NH2; linker I:N-II:4 via X2) gave a tumor free mice of 1. For the same compound, the “increase of IC50 on removal of the Cy5.5 moiety, PC3flu cells” value in [2] (versus PSMA-1-VcMMAE-Cy5.5) worked out at 11.1 fold. In addition, the IC50 came out at 222 nM in [3] and 4.64 nM in series [6] (CCK-8, read-out: IC50 cytotoxicity, PC3pip cells). In series [4] (955 nmol/kg), the “inhibition of PC3pip versus PC3flu tumor growth” value is listed as “significantly more effective at inhibiting PSMA-positive PC3pip tumor growth than PSMA-negative PC3flu tumor growth”. For the same compound, the “cure (tumor free at 90 days)” value in series [4] (3820 nmol/kg i.v. every 4 days, 5 doses) turned out to be 60%. The “tumor growth when given every 7 days” value in series [4] (dosing every 7 days) is “greatly inhibited tumor growth”. The body weight loss entry in [4] (even at the highest dose tested (3820 nmol/kg)) is reported as “No body weight loss”. For the same compound, the “dose at which tumor growth inhibition starts” value in series [4] (mouse, in vivo) was determined as 191 nmol/kg. In addition, the “ratio of IC50's between PC3pip and PC3flu cells” value in [5] (72 hours incubation) is 48.2. In [5] (co-incubation with 50 μM E64), the “effect of protease inhibitor E64 on cell killing” value is listed as “susceptible to E64 protease inhibition”. Also, the “increase of IC50 on removal of the Cy5.5 moiety, PC3pip cells” value in series [5] (versus PSMA-1-VcMMAE-Cy5.5) stood at 6.2 fold. In addition, the selectivity ratio in [6] (read-out: selectivity, differential cytotoxicity between PC3pip and PC3flu cells) worked out at 48. For the same compound, in series [7] (MTD / lowest effective dose), the “therapeutic index (TI)” value worked out at 40. Also, the maximum tolerated dose (MTD) (commonly the largest dose that counted as tolerated) in series [7] (mouse, in vivo, iv, single dose i.v., tumor-free athymic nude mice) worked out at 7.64 µmol/kg. Also, the “MTD relative to MMAE” value in [7] (single dose i.v.) is listed as “more than 10 fold”. Besides, the “effect on survival and body weight, words” value in series [8] is on record as “prolong animal survival time with no body weight loss”.

As for `NCCCC[C@H](NC(=O)N[C@@H](CCC(=O)O)C(=O)O)C(=O)O` [ZJ24, (S)-2-(3-((S)-5-amino-1-carboxypentyl)-ureido)pentanedioic acid, reference compound], the IC50 came to 11.7 nM in series [9] and 10.7 ± 0.89 nM in series [10].

Take `CC[C@H](C)[C@@H]([C@@H](CC(=O)N1CCC[C@H]1[C@H](OC)[C@@H](C)C(=O)N[C@H](C)[C@@H](O)c1ccccc1)OC)N(C)C(=O)[C@@H](NC(=O)[C@H](C(C)C)N(C)C(=O)CCCCCN1C(=O)CC(SC[C@H](NC(=O)[C@H](CCC(=O)O)NC(=O)[C@H](CCC(=O)O)NC(=O)[C@H](CCC(=O)O)NC(=O)CCCCCNC(=O)[C@H]2CC[C@H](CNC(=O)CC[C@H](NC(=O)N[C@@H](CCC(=O)O)C(=O)O)C(=O)O)CC2)C(=O)NCCCCCC(=O)N[C@@H](CCCCNC(=O)CCCCC[N+]2=C(/C=C/C=C/C=C3/N(C)c4ccc5ccccc5c4C3(C)C)C(C)(C)c3c2ccc2ccccc32)C(N)=O)C1=O)C(C)C` (some centres unmarked) [PSMA-1-McMMAE-Cy5.5]: the “disruption of α-tubulin network” value in [11] was “no obvious disruption of tubulin”. Besides, the “IC50 cytotoxicity, PC3flu cells” value in [2] (72 hours incubation, CCK-8) is listed as “no IC50 values could be obtained”. Further, the “IC50 cytotoxicity, PC3pip cells” value in series [5] (72 hours incubation, CCK-8) was “no IC50 values could be obtained”. Also, the “stability when incubated with PBS” value in series [12] is “stable”. In addition, the “time of peak uptake in PC3pip tumors” value in series [13] was 24 h. In addition, in [14], the “cleavage by cathepsin B” value is given as “remained intact”. Besides, the “cellular binding and uptake, competition with PSMA-1 ligand” value in [15] was “selective and specific for the PSMA receptor”.

Values taken from patent US20250332265A1, “PSMA TARGETED CONJUGATE COMPOUNDS AND USES THEREOF” (priority 2021, published 2025).
